Data from ChEMBL document CHEMBL4396956 (Bioorg Med Chem, 2019).
Active and inactive are the calls of the source. The rule behind the calls is not given here.

Legend:
[1] = molecular target: Glucagon-like peptide 1 receptor (Homo sapiens, UniProt P43220); assay: Agonist activity at human GLP1 receptor expressed in HEK293 cells assessed as induction of cAMP levels after 20 mins by time-resolved fluorescence analysis; type: functional, cell-based
[2] = tested on: Rattus norvegicus; assay: Antidiabetic activity in Sprague-Dawley rat assessed as decrease in glucose level at 25 nmol/kg, ip pretreated for 30 mins followed by glucose challenge and measured up to 180 mins by OGTT relative to control; type: functional, organism-based
[3] = tested on: Rattus norvegicus; assay: Antidiabetic activity in Sprague-Dawley rat assessed as increase in insulin level at 25 nmol/kg, ip pretreated for 30 mins followed by glucose challenge and measured after 15 to 60 mins by ELISA method; type: functional
[4] = tested on: Mus musculus; assay: Antidiabetic activity in STZ-induced diabetic Kunming mouse assessed as hypoglycemic time duration for glycemia under 8.35 mmol/L at 25 nmol/kg, ip pretreated with STZ for 5 consecutive days and measured up to 48 hrs; type: functional

Sequence of Glucagon-like peptide 1 receptor (P43220 whole entry): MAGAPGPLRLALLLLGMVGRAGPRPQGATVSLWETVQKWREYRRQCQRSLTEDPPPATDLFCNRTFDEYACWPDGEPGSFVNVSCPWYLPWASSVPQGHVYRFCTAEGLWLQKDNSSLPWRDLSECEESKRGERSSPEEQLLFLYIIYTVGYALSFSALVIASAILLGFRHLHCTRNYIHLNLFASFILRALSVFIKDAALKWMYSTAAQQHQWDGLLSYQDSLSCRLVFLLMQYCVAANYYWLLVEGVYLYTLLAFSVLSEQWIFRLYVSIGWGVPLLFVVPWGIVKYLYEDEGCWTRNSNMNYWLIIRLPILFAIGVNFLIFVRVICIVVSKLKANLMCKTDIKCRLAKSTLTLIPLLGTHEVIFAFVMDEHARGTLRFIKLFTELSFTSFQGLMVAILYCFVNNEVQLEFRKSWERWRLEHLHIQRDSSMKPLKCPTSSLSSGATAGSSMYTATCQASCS

| EC50 [1] | Compound | Activity [2] | Activity [3] | Time [4] |
| --- | --- | --- | --- | --- |
| 0.0202 nM | CC[C@H](C)[C@H](NC(=O)[C@H](Cc1ccc(O)cc1)NC(=O)[C@H](CC(C)C)NC(=O)[C@H](CCCNC(=N)N)NC(=O)[C@@H](NC(=O)[C@H](C)NC(=O)[C@H](CCC(=O)O)NC(=O)[C@H](CCC(=O)O)NC(=O)[C@H](CCC(=O)O)NC(=O)[C@H](CCSC)NC(=O)[C@H](CCC(N)=O)NC(=O)[C@H](CCCCN)NC(=O)[C@H](CO)NC(=O)[C@H](CC(C)C)NC(=O)[C@H](CC(=O)O)NC(=O)[C@H](CO)NC(=O)[C@@H](NC(=O)[C@H](Cc1ccccc1)NC(=O)[C@@H](NC(=O)CNC(=O)[C@H](CCC(=O)O)NC(=O)CNC(=O)[C@@H](N)Cc1cnc[nH]1)[C@@H](C)O)[C@@H](C)O)C(C)C)C(=O)N[C@@H](CCC(N)=O)C(=O)N[C@@H](Cc1c[nH]c2ccccc12)C(=O)N[C@@H](CC(C)C)C(=O)N[C@@H](CCCCN)C(=O)N[C@@H](CCC(=O)O)C(=O)NCC(=O)NCC(=O)N1CCC[C@H]1C(=O)N[C@@H](CO)C(=O)N[C@@H](CO)C(=O)NCC(=O)N[C@@H](CCCNC(=N)N)C(=O)N1CCC[C@H]1C(=O)N1CCC[C@H]1C(=O)N1CCC[C@H]1C(=O)N[C@@H](CO)C(=O)N[C@@H](CSC1CC(=O)N(CCCCCCCCCCCC(=O)N[C@@H](CCC(=O)O)C(=O)O)C1=O)C(N)=O (stereo not given in full) | – | – | – |
| 0.0182 nM | CC[C@H](C)[C@H](NC(=O)[C@H](Cc1ccc(O)cc1)NC(=O)[C@H](CC(C)C)NC(=O)[C@H](CCCNC(=N)N)NC(=O)[C@@H](NC(=O)[C@H](C)NC(=O)[C@H](CCC(=O)O)NC(=O)[C@H](CCC(=O)O)NC(=O)[C@H](CCC(=O)O)NC(=O)[C@H](CCSC)NC(=O)[C@H](CCC(N)=O)NC(=O)[C@H](CSC1CC(=O)N(CCCCCCCCCCCC(=O)N[C@@H](CCC(=O)O)C(=O)O)C1=O)NC(=O)[C@H](CO)NC(=O)[C@H](CC(C)C)NC(=O)[C@H](CC(=O)O)NC(=O)[C@H](CO)NC(=O)[C@@H](NC(=O)[C@H](Cc1ccccc1)NC(=O)[C@@H](NC(=O)CNC(=O)[C@H](CCC(=O)O)NC(=O)CNC(=O)[C@@H](N)Cc1cnc[nH]1)[C@@H](C)O)[C@@H](C)O)C(C)C)C(=O)N[C@@H](CCC(N)=O)C(=O)N[C@@H](Cc1c[nH]c2ccccc12)C(=O)N[C@@H](CC(C)C)C(=O)N[C@@H](CCCCN)C(=O)N[C@@H](CCC(=O)O)C(=O)NCC(=O)NCC(=O)N1CCC[C@H]1C(=O)N[C@@H](CO)C(=O)N[C@@H](CO)C(=O)NCC(=O)N[C@@H](CCCNC(=N)N)C(=O)N1CCC[C@H]1C(=O)N1CCC[C@H]1C(=O)N1CCC[C@H]1C(=O)N[C@@H](CO)C(N)=O (stereo not given in full) | – | – | – |
| – | CCCCCCCCCCCCCCCC(=O)N[C@@H](CCC(=O)NCCCC[C@H](NC(=O)[C@H](C)NC(=O)[C@H](C)NC(=O)[C@H](CCC(N)=O)NC(=O)CNC(=O)[C@H](CCC(=O)O)NC(=O)[C@H](CC(C)C)NC(=O)[C@H](Cc1ccc(O)cc1)NC(=O)[C@H](CO)NC(=O)[C@H](CO)NC(=O)[C@@H](NC(=O)[C@H](CC(=O)O)NC(=O)[C@H](CO)NC(=O)[C@@H](NC(=O)[C@H](Cc1ccccc1)NC(=O)[C@@H](NC(=O)CNC(=O)[C@H](CCC(=O)O)NC(=O)[C@H](C)NC(=O)[C@@H](N)Cc1cnc[nH]1)[C@@H](C)O)[C@@H](C)O)C(C)C)C(=O)N[C@@H](CCC(=O)O)C(=O)N[C@@H](Cc1ccccc1)C(=O)N[C@H](C(=O)N[C@@H](C)C(=O)N[C@@H](Cc1c[nH]c2ccccc12)C(=O)N[C@@H](CC(C)C)C(=O)N[C@H](C(=O)N[C@@H](CCCNC(=N)N)C(=O)NCC(=O)N[C@@H](CCCNC(=N)N)C(=O)NCC(=O)O)C(C)C)[C@@H](C)CC)C(=O)O [LIRAGLUTIDE] | Active | 411 pmol/L | 13.1 h |
